We go through eight compounds from PubChem BioAssay AID651549 (Sanford-Burnham Center for Chemical Genomics, 2012).

A short description of the test: GAPDH and PEG-3 promoter luciferase suppression – cell-based, luminescence, set 2, counter-screen for PEG-3 promoter inhibitor project, dose response (AID 651549). As to conditions: HeLa PEG-Prom-luciferase or GAPDH-reporter, 6/24 h.

Each structure is given as a SMILES string. Active and inactive are the calls of the source.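 How the source made its calls: active means compounds blocking the PEG3 reporter with IC50 up to 10 µM at either incubation, yet sparing the GAPDH control reporter; inactive means the rest.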

In general, IC50 refers to the midpoint of a concentration-inhibition curve. As for `NS(=O)(=O)c1ccc(CCNc2nn3c(-c4ccc(F)c(Cl)c4)cnc3s2)cc1`, the IC50 entry (GAPDH, run 1, 6 h) was “inactive” and the IC50 result (PEG-3, run 1, 6 h) is “inactive”. The IC50 (GAPDH, run 1, 24 h) was 2380 nM and the IC50 (PEG-3, run 1, 24 h) was 2990 nM.
Take `CC(C)(C)c1ccc(Cn2c(=O)cnc3ccccc32)cc1`: the IC50 by setting is: (GAPDH, run 1, 6 h) 6000 nM; (GAPDH, run 1, 24 h) 6640 nM; (PEG-3, run 1, 6 h) 3470 nM. Besides, the IC50 entry (PEG-3, run 1, 24 h) was “inactive”.
For `O=C(c1ccco1)N1CCN(C(c2ccccc2Cl)c2nnnn2Cc2cccs2)CC1` (configuration not stated), the IC50 result is, setting by setting: (GAPDH, run 1, 6 h) “inactive”; (GAPDH, run 1, 24 h) “inactive”; (PEG-3, run 1, 24 h) “inactive”. The IC50 (PEG-3, run 1, 6 h) was > 99000 nM (inactive).
As for `Cc1ccc2nc(NC(=O)CSCC(=O)OCC(=O)c3ccc(Br)cc3)sc2c1`, the IC50 was 3810 nM (GAPDH, run 1, 6 h); 1980 nM (GAPDH, run 1, 24 h); > 99000 nM (inactive) (PEG-3, run 1, 6 h); 1960 nM (PEG-3, run 1, 24 h).
For `CC(=O)c1cccc(-c2ccnc3c2CC(C(=O)Nc2cccc(NS(C)(=O)=O)c2)O3)c1` (configuration not stated) the same measures were “inactive”, 8620 nM, > 99000 nM (inactive) and “inactive”.
For the compound `O=C(Nc1cccc(-c2ccc(N3CCCCC3)nn2)c1)C(F)(F)F`, the IC50 (GAPDH, run 1, 6 h) is 3500 nM; the IC50 (PEG-3, run 1, 6 h) is 5360 nM; the IC50 (PEG-3, run 1, 24 h) was 8670 nM. Further, the IC50 result (GAPDH, run 1, 24 h) is “inactive”.
On the same counts, the results for `Cc1ccc(C)c(S(=O)(=O)N2CCN(c3ncnc4sccc34)CC2)c1` are “inactive”, “inactive”, 2180 nM and 2540 nM.
For `COC(=O)C1=C(CN2CCCc3ccccc32)NC(=O)NC1c1ccc(F)cc1` (configuration not stated) the same measures were 1390 nM, 625 nM, 681 nM and 789 nM.
